Measurements reported in BindingDB's records for doi:10.1016/j.ejmech.2019.01.082 (Fudan University, 2019).

Test: Inverse agonist activity at RORgammat in mouse CD4 positive T cells assessed as inhibition of Th17 cell differentiation by measuring IL-17 release after 4 days by cellular staining based flow cytometry

| Structure (SMILES) | IC50 [nM] |
| --- | --- |
| N#Cc1cccc(C(=O)Nc2ccc3c(c2)C(N2CCN(C(=O)C4CCCC4)CC2)CC3)c1 (centres undefined) | 2660 |
| N#Cc1cccc(C(=O)Nc2cccc3c2CCC3N2CCN(C(=O)C3CCCC3)CC2)c1 (centres undefined) | 1780 |
| N#Cc1cccc(C(=O)Nc2ccc3c(c2)C(N2CC4CCC(C2)N4C(=O)C2CCCC2)CC3)c1 (centres undefined) | 423 |
| N#Cc1cccc(C(=O)Nc2cccc3c2CCC3N2CC3CCC(C2)N3C(=O)C2CCCC2)c1 (centres undefined) | 385 |
